Test results from US10092000B2, “Structure, synthesis, and applications for oligo phenylene ethynylenes (OPEs)” (STC.UNM, priority 2010, dated 2018).
“And” between values parts separate entries of the source, which are not always exact repeats. Equal entries are not always repeated. “Also recorded” adds a separate entry of the source.

Key:
S.aureus = assay: Dead/live assay, biocidal activity against S.aureus; format: cell-based; details: for light activated death of S. aureus: light and dark conditions, 0.1 to 5 μg/mL, various time points (FIGS. 22-25); for killing of S. aureus: under 365 nm radiation
Procedure: (§1) Dead/live assays were performed to test the biocidal activity of EO-OPE-1(C3, A), EO-OPE-1 (C2, A), EO-OPE-1 (C3, S) and EO-OPE-1 (Th, C3, A) against E.coli, S.epidermis, and S.aureus. E.coli, S.epidermis, and S.aureus were cultured in 50 mL of Difco™ Nutrient broth (LOT 4057492, Becton, Dickinson and Company, Sparks, Md. 21152 USA), Difco™ Nutrient broth (LOT 4057492, Becton, Dickinson and Company, Sparks, Md. 21152 USA), and BBL™ Brain Heart Infusion (LOT 8263271, Becton, Dickinson and Company, Sparks, Md. 21152 USA), respectively, for 18 h at 37° C. under shaking. The bacteria were collected by centrifuging 50 mL of culture at 4,000 rpm in an Eppendorf centrifuge for 15 min at 4° C. The pellet was re-suspended with the assistance of vortex in 25 mL of 0.85% NaCl solution and repelleted. The wash cycle was repeated twice. Bacterial concentrations were measured and normalized using a disposal hemocytometer (INCYTO Co., Ltd), counts being 2.5˜3.0×10^7/mL. The diluted bacteria suspension was added to 1.5 mL of black and transparent microtubes in aliquots of 500 μL for dark and light samples, respectively. Three groups of live controls were prepared with cells suspended in black microtubes, transparent microtubes, and quartz cuvettes at the same concentrations, but without chemicals. These bacteria samples were titrated by OPEs with various concentrations followed by staying in dark for dark samples/controls and exposing to UV irradiation in a photoreactor chamber for light samples/controls with certain duration.
(§2) Dead/live assays were carried out using two sets of stains: SYTO 9/Propidium iodide for E.coli and SYTO 24/Propidium iodide for S.epidermis and S.aureus. SYTO 9 and SYTO 24 are cell membrane permeant nucleic acid stains with green (˜498 nm for SYTO 9 and ˜515 nm for SYTO 24) fluorescence and used to stain both live and dead cells; Propidium iodide is a red-fluorescent nucleic acid stain that is membrane impermeable to viable cells but stains DNA or RNA of dead cells with comprised membranes and emits red (˜617 nm) fluorescence, indicating cell death. Upon the completion of the above treatment, a 1 to 1 ratio mixture of the two dyes was prepared and added into the samples (2.4 μL mixed dyes for 500 μL suspension) and incubated for 15 minutes in the dark. Bacteria were then examined under a 40× oil objective on a Zeiss LSM 510 Meta confocal laser scanning microscope and an Accuri C6 flow cytometer to identify and quantify those live and dead bacteria.
Experiments similar to those described in Example 1 above were performed using TM and OPE1-DABCO against S. Aureus. FIG. 22 is a graph showing TM vs. 7×10^7/mL S. aureus under light and dark conditions at concentrations of 0.1 and 1 μg/mL and at various time points (5, 10, 15, 30, 45, and 60 minutes). FIG. 23 is a graph showing EO-OPE1-DABCO vs 6×10^7/mL S. aureus under light and dark conditions at different concentrations of 0.1, 1, and 5 μg/mL and at various time points. FIG. 24 is a graph showing EO-OPE1-DABCO vs S. Aureus under light and dark conditions at a concentration of 1 μg/mL and at various time points. FIG. 25 is a graph showing EO-OPE1-DABCO vs S. Aureus under light and dark conditions at different concentrations of 0.1 and 1 μg/mL and at various time points.

[1] = tested on: MS2 and T4 bacteriophages; assay: Antiviral activity, general statement; format: cell-based
Solubility in solvents = format: physicochemical
[2] = tested on: E.coli, S.epidermis, and S.aureus; assay: Dead/live assays, biocidal activity stated without singling out a bacterium; format: cell-based; details: UV irradiation
Procedure: as §1, §2

bacteriophage T4 = assay: Phage inactivation, phage titer (PFU), T4; format: cell-based; details: 10 ug/ml, in the dark, 1 hour
Procedure: (§3) Bacteriophage Preparation and Titer. E. coli cells were grown in the standard Luria broth. The fresh E. coli culture was inoculated from an overnight culture followed by approximately three hours incubation at 37° C. to the exponential growth phase (O.D.600˜0.5). At this growth phase, the E. coli cells were collected by centrifuge and washed with Escherichia coli minimal medium (Glucose 5 g/L, Na2HPO4 6 g/L, KH2PO4 3 g/L, NH4Cl 1 g/L, NaCl 0.5 g/L, MgSO4, 0.12 g/L, CaCl2 0.01 g/L, pH 7.2) twice. The cell pellet was resuspended with minimal medium. The phage stock solutions were added into their corresponding bacterial host suspensions the phage-bacteria mixture incubated for 15 minutes at 37° C. for infection. The phage-bacteria mixture was transferred into fresh Escherichia coli minimal medium and incubated overnight for viral replication. […] The phage titer was determined by plaque forming units (PFU). […] After 6˜8 hours incubation, the plaque forming units were counted and phage solutions were diluted to 10^6˜10^7 PFU/ml with the minimal medium for further use.
(§4) Phage Inactivation. […] The viral inactivation ability was determined by phage titer as stated above and calculated by log (N0/N), where N is the PFU of the phage solution after exposure to CPEs/OPEs; N0 represents the PFU of corresponding negative control (without CPEs, OPEs or UV-irradiation). […]

E.coli = assay: Dead/live assay, biocidal activity against E.coli; format: cell-based; details: under 365 nm radiation
Procedure: (§5) Dead/live assays were performed to test the biocidal activity of EO-OPE-1(C3, A), EO-OPE-1 (C2, A), EO-OPE-1 (C3, S) and EO-OPE-1 (Th, C3, A) against E.coli, S.epidermis, and S.aureus. E.coli, S.epidermis, and S.aureus were cultured in 50 mL of Difco™ Nutrient broth (LOT 4057492, Becton, Dickinson and Company, Sparks, Md. 21152 USA), Difco™ Nutrient broth (LOT 4057492, Becton, Dickinson and Company, Sparks, Md. 21152 USA), and BBL™ Brain Heart Infusion (LOT 8263271, Becton, Dickinson and Company, Sparks, Md. 21152 USA), respectively, for 18 h at 37° C. under shaking. The bacteria were collected by centrifuging 50 mL of culture at 4,000 rpm in an Eppendorf centrifuge for 15 min at 4° C. […] Bacterial concentrations were measured and normalized using a disposal hemocytometer (INCYTO Co., Ltd), counts being 2.5˜3.0×10^7/mL. […]
(§6) Dead/live assays were carried out using two sets of stains: SYTO 9/Propidium iodide for E.coli and SYTO 24/Propidium iodide for S.epidermis and S.aureus. SYTO 9 and SYTO 24 are cell membrane permeant nucleic acid stains with green (˜498 nm for SYTO 9 and ˜515 nm for SYTO 24) fluorescence and used to stain both live and dead cells; Propidium iodide is a red-fluorescent nucleic acid stain that is membrane impermeable to viable cells but stains DNA or RNA of dead cells with comprised membranes and emits red (˜617 nm) fluorescence, indicating cell death. […]

MS2 phage = assay: TEM of viral morphology damage, MS2; design: species or system Bacteriophage MS2; details: 50 ug/ml, dark and irradiated (FIGS. 34, 36, 38, 40)
Procedure: (§7) Transmission Electron Microscopy. High concentration of model viruses (˜10^11 PFU/ml for T4 phage, ˜10^12 PFU/ml for MS2 phage) and CPE/OPE (50 ug/ml) was used for TEM imaging (TEM images were generated in the UNM Electron Microscopy Shared Facility using a Hitachi H7500 transmission electron microscope.) Phage samples were prepared by adding 5 uL phage solutions onto carbon-coated copper grids (freshly cleaned by plasma cleaner) and standing for 2 minutes then rinsing with pure water. The negative stain, 2% aqueous solution of uranyl acetate, was adding onto the grids and standing for 2 minutes, the excess stain was removed by filter paper. The grid was dried in air.

[3] = Absorption and fluorescence spectroscopy; format: physicochemical; details: for absorbance intensity after 30 min relative to that measured at 1 min: 10 μM in H2O
Procedure: (§8) Photophysical study. For the absorption and fluorescence spectroscopy, we prepared a stock solution with concentration of 1 mM oligomer and 10% v/v solution of DMSO in H2O. 30 μL of the sonicated suspension of each EO-OPE-1 was diluted into 3 mL solution in a quartz cuvette to give a concentration of 10 μM. Absorption and fluorescence were performed on plate reader (SpectroMax M-5 microplate reader, Molecular Devices) at 24° C. Transient absorption spectra were recorded for EO-OPE-1 samples in both methanol and water. Transient absorption spectra were collected using laser systems that are described elsewhere 1, 2. The optical density was adjusted to 0.7 at the excitation wavelength (355 nm) with the laser energy being 6-7 mJ. Solutions were purged with argon for […] before making transient absorption spectroscopy measurements.

[4] = Transient absorption spectroscopy (triplet state); format: physicochemical
Procedure: as §8
Singlet oxygen generation. Excited triplet state (ETS) plays an essential role in the generation of ROS and 1O2. […] Another important point to note is that all members of EO-OPE-1 series underwent fast photobleaching in water during TA experiments (approximately 40-50% reduction in signal intensity). To minimize the error due to photobleaching, fresh samples were prepared and used in each run. […] On the other hand, the triplet lifetimes for EO-OPE-1(C3, A), EO-OPE-1 (C2, A), EO-OPE-1 (C3, S), and EO-OPE-1 (Th, C3, A) are 5.2 μs, 17.9 μs, 18.7 μs, and 7.2 μs, respectively. Based on the above discussions, we would expect C will give a higher yield of 1O2, with lower yields for EO-OPE-1 (C2, A), EO-OPE-1(C3, A), and EO-OPE-1 (C3, S).

T4 phage = assay: TEM of viral morphology damage, T4; design: species or system Bacteriophage T4; details: 50 ug/ml, dark and irradiated (FIGS. 33, 35, 37, 39)
Procedure: as §7

S.epidermis = assay: Dead/live assay, biocidal activity against S.epidermis; format: cell-based, Staphylococcus epidermis; details: under 365 nm radiation
Procedure: as §5, §6

bacteriophage MS2 = assay: Phage inactivation, phage titer (PFU), MS2; format: cell-based; details: 10 ug/ml, UV-light, 1 hour
Procedure: as §3, §4

Structure (SMILES)	light activated death of S. aureus (S.aureus)	antiviral activity [1]	solubility in CH3OH (Solubility in solvents)	solubility in DMF and DMSO (Solubility in solvents)	solubility in water (Solubility in solvents)	light-induced biocidal activity [2]	killing of E. coli (E.coli)	absorbance intensity after 30 min relative to that measured at 1 min [3]	Fluorescence quantum yields(Φf)* ([3]; in water)	transient absorption (TA) intensity, comparison in words [4]	τ3/intensity in H2O ([4]; in H2O)	τ3/λmax(nm) in H2O ([4]; in H2O)	τ3/μs in H2O (triplet lifetime) ([4]; in H2O)	killing of S. aureus (S.aureus)	killing of S. epidermis (S.epidermis)	further results
CCCCCC[N+]12CC[N+](CCCOc3ccc(C#Cc4ccc(C#Cc5ccc(OCCC[N+]67CC[N+](CCCCCC)(CC6)CC7)cc5)cc4)cc3)(CC1)CC2.[Br-].[Br-].[Br-].[Br-] [EO-OPE-1-DABCO]	light activated death is clearly demonstrated	–	–	–	–	–	–	–	–	–	–	–	–	–	–	–
C[N+](C)(C)CCCOc1ccc(C#Cc2ccc(C#Cc3ccc(OCCC[N+](C)(C)C)cc3)s2)cc1.[I-].[I-] [EO-OPE-1 (Th, C3, A)]	–	significant antiviral activity	moderately soluble	quite soluble	poorly soluble	dramatic light-induced biocidal activity	kill	the same	0.50 and 0.46 ± 0.02	highest TA intensity	0.15	510 nm	7.2 μs	kill	kill	dark antiviral activity against T4 phage (bacteriophage T4): significant dark antiviral activity; morphology of treated MS2 phage by TEM (MS2 phage): Obvious morphology change; morphology of treated T4 phage by TEM (T4 phage): serious damage; log killing against S. aureus (S.aureus; concentration as low as 5 ng/mL, half hour irradiation): 5 log
O=S(=O)([O-])CCCOc1ccc(C#Cc2ccc(C#Cc3ccc(OCCCS(=O)(=O)[O-])cc3)cc2)cc1.[Na+].[Na+] [EO-OPE-1 (C3, S)]	–	–	moderately soluble	quite soluble	poorly soluble	dramatic light-induced biocidal activity; also recorded: relatively poor light-induced biocidal activity	kill	1.5 times	0.46 and 0.50 ± 0.07	comparable	0.06	543 nm	–	kill	kill	–
C[N+](C)(C)CCOc1ccc(C#Cc2ccc(C#Cc3ccc(OCC[N+](C)(C)C)cc3)cc2)cc1.[I-].[I-] [EO-OPE-1 (C2, A)]	–	–	moderately soluble	quite soluble	poorly soluble	dramatic light-induced biocidal activity	–	the same	0.59 ± 0.05	comparable	0.065	541 nm	17.9 μs and 18.7 μs	–	–	–
COc1cc(C#Cc2ccc(C#Cc3ccc(OCCC[N+](C)(C)C)cc3)cc2)cc(OC)c1OC.[I-] [TM]	light activated death is clearly demonstrated	–	–	–	–	–	–	–	–	–	–	–	–	–	–	–
C[N+](C)(C)CCCOc1ccc(C#Cc2ccc(C#Cc3ccc(OCCC[N+](C)(C)C)cc3)cc2)cc1.[I-].[I-] [EO-OPE-1 (C3, A)]	–	significant antiviral activity	moderately soluble	quite soluble	poorly soluble	dramatic light-induced biocidal activity	–	around 2 times	0.52 ± 0.05	comparable	0.07	545 nm	17.9 μs	–	–	inactivation of MS2 phage in the presence of UV irradiation (bacteriophage MS2): enhanced inactivation; Fluorescence quantum yields(Φf)* ([3]; in water; A)): 0.59; τ3/μs in H2O (triplet lifetime) ([4]; in H2O; A)): 5.2 μs
